In patent publication US10718028B2, “Fluorescent probes for abasic site detection” (CASE WESTERN RESERVE UIVERSITY, priority 2015, dated 2020):

Legend:
[1] = Absorption and emission spectra of AP site binding probes in ethanol; format: physicochemical
Protocol: (§1) NMR spectra were recorded on a Varian Mercury 300 MHz, a Varian Inova 400, and a Varian Inova 600 MHz spectrometer at room temperature, except where otherwise noted. Chemical shifts for 1H NMR were reported as 6, parts per million, and referenced to CHCl3 at 7.26 ppm or TMS at 0 ppm. Chemical shifts for ^13C NMR were reported as 6 and referenced to the center line of the CDCl3 triplet at 77.0 ppm or CH2Cl2 pentet at 54.0 ppm. Low resolution mass spectra were recorded on a ThermoScientific LCQ Advantage or a Finnigan LCQ Deca mass spectrometer. Fluorescence data were collected on a Varian Cary Eclipse fluorescence spectrophotometer in a quartz cuvette with a 1 cm pathlength or on a Tecan Infinite M200 scanner. Absorbance data were collected on a Varian Cary 50 Bio UV-Visible Spectrophotometer in a quartz cuvette with a 1 cm path length.
To characterize the fluorescent properties, the absorption and emission spectra were collected for all final compounds.

[2] = Fluorescence and absorbance properties of Cy7MX in various solvents (Example 1); format: physicochemical
Protocol: as §1
Fluorescent quantum yields were determined by a comparative method to an indocyanine green (ICG) standard (Φ=0.132 in EtOH) with refractive index correction according to Equation 1:
[formula] • where Φ is the quantum yield; F is the integrated fluorescence intensity (area); A is the absorbance; n is the refractive index of the solvent (ethanol, 1.3611; acetonitrile, 1.3442; water, 1.333; and chloroform, 1.4459); and R is the reference sample, ICG in EtOH. Sample and reference fluorophores were excited at 700 nm and emission spectra integrated from 705 to 1000 nm and absorption measurements were collected at 700 nm. Data were collected in a quartz cuvette with a 1 cm pathlength. Absorbance maxima for each sample were kept at or below 0.2 absorbance units to avoid inner filter effects. Solvents used were spectroscopic grade ethanol and HPLC grade acetonitrile, HPLC grade chloroform, and HPLC grade water. For the water solution, Cy7MX was first dissolved first in MeCN and diluted at least 200 fold. Synthesis of Compounds for AP Site Detection
Further characterization was conducted for Cy7MX (Table 2), Cy7MX, because it was chosen for extensive investigation in biological studies. The absorption and emission spectra were collected in polar protic (water and ethanol), polar aprotic (acetonitrile), and relatively nonpolar (chloroform) solvents. […] The extinction coefficient and the fluorescence quantum yields for Cy7MX compared favorably to other heptamethine cyanine dyes.

[3] = Optical properties of Cy7MX in various solvents (Example 2); format: physicochemical
Text: Fluorescence quantum yield measurements. Fluorescent quantum yields determined by a comparative method to an indocyanine green (ICG) standard (F=0.132 in EtOH) with refractive index correction according to the equation:
[formula] • where F is the quantum yield; m is the slope of the integrated fluorescence intensity as a function of absorbance maxima; n is the refractive index of the solvent (EtOH, 1.3611; MeCN, 1.3442; H2O, 1.333; and CHCl3, 1.4459); and R is the reference sample, ICG in EtOH. Data were collected in a quartz cuvette with a 1 cm path length. Absorbance maxima for each sample were kept at or below 0.2 absorbance units to avoid inner filter effects. Fluorophores were excited at 700 nm and emission spectra integrated from 705 to 1000 nm. Solvents used were spectroscopic grade ethanol and HPLC grade acetonitrile, HPLC grade chloroform, and HPLC grade water. For the water solution, Cy7MX was first dissolved in MeCN and diluted at least 200 fold. SSB Activity Assay General Procedures
The absorption and fluorescence properties of Cy7MX were then evaluated in relatively nonpolar (CHCl3), polar aprotic (MeCN), and polar protic (EtOH and H2O) solvents. […] Likewise, the quantum yields of Cy7MX in these solvents compare favorably with other cyanine dyes (Table 3).

[4] = tested on: U:A-paired DNA; assay: SSB activity assay control reactions; format: biochemical
Protocol: SSB Activity Assay Control Reactions
Samples were prepared in triplicate.
After evaluating the fluorescence properties of Cy7MX, its ability to bind to AP sites was examined We developed an assay using a fluorescently tagged dsDNA (double stranded DNA) oligonucleotide with a single uracil incorporated into the labeled strand (FIG. 5A). A green emitting hexachlorofluorescein (HEX) label was incorporated at the 5′ end of the sense strand in order to avoid overlapping with the NIR fluorecent emission of Cy7MX. We expected that treatment of this oligomer with UDG would generate an AP site and subsequent treatment with APE would produce a single strand break. This break could be visualized by denaturing gel electrophoresis to reveal a 16mer single strand DNA (ssDNA) instead of the 40mer parent (FIG. 5B). However, we hypothesized that if the oligomer were treated with Cy7MX prior to APE treatment, the covalent Cy7MX:AP site lesion would not be recognized by APE as a substrate and no SSB would form.

[5] = Stability of Cy7MX and Cy7MX-treated samples; format: physicochemical

CCCN1/C(=C/C=C2\CCCC(/C=C/C3=[N+](CCC)c4ccccc4C3(C)C)=C2Oc2ccc(CC(=O)NCCCON)cc2)C(C)(C)c2ccccc21 [Cy7MX, 2-((E)-2-((E)-2-(4-(2-((3-(aminooxy)propyl)amino)-2-oxoethyl)phenoxy)-3-((E)-2-(3,3-dimethyl-1-propylindolin-2-ylidene)ethylidene)cyclohex-1-en-1-yl)vinyl)-3,3-dimethyl-1-propyl-3H-indol-1-ium 2,2,2-trifluoroacetate]
Stokes shift [1]: 20 nm
λabs max [1]: 770 nm
λem max [1]: 796 nm
Φ ([2]; CHCl3): 32.6%
λabs ([2]; CHCl3): 770 nm
λem ([2]; CHCl3): 791 nm
Φ ([2]; EtOH): 36.3%
ε ([2]; EtOH): 127,000 M^−1cm^−1
λabs ([2]; EtOH): 770 nm
λem ([2]; EtOH): 796 nm
Φ ([2]; H2O): 6.3%
ε ([2]; H2O): 140,000 M^−1cm^−1
λabs ([2]; H2O): 767 nm
λem ([2]; H2O): 790 nm
Φ ([2]; MeCN): 45.9%
ε ([2]; MeCN): 154,000 M^−1cm^−1
λabs ([2]; MeCN): 767 nm
λem ([2]; MeCN): 789 nm
solvatochromism ([2]; water, ethanol, acetonitrile, chloroform): No solvatochromism was observed
Φ ([3]; CHCl3): 38.2%
λabs ([3]; CHCl3): 770 nm
λem ([3]; CHCl3): 791 nm
absorption maximum ([3]; CHCl3, MeCN, EtOH and H2O): ~770 nm
emission maximum ([3]; CHCl3, MeCN, EtOH and H2O): ~790 nm
solvatochromic shifts ([3]; CHCl3, MeCN, EtOH and H2O): No solvatochromic shifts were observed
Φ ([3]; EtOH): 39.3%
ε ([3]; EtOH): 127,000 M−1cm−1
λabs ([3]; EtOH): 770 nm
λem ([3]; EtOH): 796 nm
Φ ([3]; H2O): 6.6%
ε ([3]; H2O): 140,000 M−1cm−1
λabs ([3]; H2O): 767 nm
λem ([3]; H2O): 790 nm
Φ ([3]; MeCN): 48.7%
ε ([3]; MeCN): 154,000 M−1cm−1
λabs ([3]; MeCN): 767 nm
λem ([3]; MeCN): 789 nm
SSB activity of the probe itself ([4]; U:A-paired DNA treated with Cy7MX alone (no enzymes)): no SSB activity
SSB activity ([4]; U:A-paired DNA with Cy7MX together with UDG and APE): the SSB activity was reduced
stability of Cy7MX with MX ([5]; in the presence of light, MX solutions): decompose Cy7MX rapidly
stability of Cy7MX assay samples ([5]; stored in the dark): stable for at least two days
